In US20250127857A1, “A COMPOSITION COMPRISING IL-36 AND/OR IL-18 FOR USE IN TREATING OCULAR DISORDERS” (THE PROVOST, FELLOWS, FOUNDATION SCHOLARS, & THE OTHER …, priority 2021, published 2025):

Key:
bone marrow derived MSCs = assay: Bone marrow derived mesenchymal stem cell activation (confocal microscopy); format: cell-based, mouse; details: IL-18 250 ng/ml, 8 h
Description: FIG. 21 illustrates IL-18 activates bone marrow derived mesenchymal stem cells, wherein bone marrow derived MSC's were treated with IL-18 at 250 ng/ml for 8 h and images using confocal microscopy, wherein cells were stained with phalloidin for F-actin, vimentin, smooth muscle actin (SMA) and collagen 1;
The femurs from mice were isolated and, using a 20 ml syringe, the bones were flushed with DMEM into a cell culture dish. The flushings were centrifuged for 5 minutes at 1000 rpm. The supernatant was poured off and resuspended in 1 ml of 15% FBS and aMEM media, and filtered through a 70 um nylon mesh into a 50 ml captube. A further 5 ml of 15% FBS and aMEM were added through the mesh tube into the same 50 ml cap tube, and plated in a TC coated dish and cultured in an incubator for 5 days. On Day 5, the dish was washed with PBS 3 times (using PBS with no magnesium or calcium),trypsinized and the trypsin pipetted onto the plate to break up the colonies. 10mis of 10% FBS and DMEM were added and the cells collected in a 50 ml cap tube and this process was repeated once more, centrifuged for 5 mins at 1000 rpm, supernatant poured off, cells resuspended in 1 ml of DMEM and 20% FBS, and plated in a T75 and fed every second day until cells were confluent. When cells were confluent, they were split 1 in 3.

HRMEC = assay: MTS assay of HRMEC proliferation with VEGF and IL-18; format: cell-based, human
Description: FIG. 17 illustrates HRMEC proliferation in response to VEGF is enhanced with IL-18 pre-treatment, wherein HRMECs were treated with increasing concentrations of VEGF alone or with a 24 hour pre-treatment of IL-18 at 10, 100 or 1000 ng/ml, wherein increasing VEGF induced an increase in cell proliferation which was enhanced following IL-18 treatment;
Cell viability was assessed using the CellTiter 96 AQueous One Solution cell proliferation MTS assay (Promega) as per the manufacturer's instructions. Cell monolayers were treated for times indicated where treatment supplemented media was then removed and incubated with 20 μl of CellTiter 96 AQueous One Solution in 100 μl of complete growth medium in a humidified incubator at 37° C. with 5% CO2for 1-4 hours. The absorbance of each well was measured at 490 nm using a SynergyMX plate reader (Biotek, Gen5™).

VEGF [1] = assay: VEGF in HOCFs treated with IL-18; format: cell-based, human; details: IL-18 100 ng/ml over 24 h
Description: (§1) FIG. 20 illustrates IL-18 activates human ocular choroidal fibroblasts and inhibits VEGF secretion, wherein (A) is human ocular choroidal fibroblast (HOCFs) treated with IL-18 at increasing doses for 8 h, wherein cells were fixed and stained with antibody targeting intermediate filament vimentin (red), Hoechst (blue) and phalloidin (green); (B) is HOCFs treated with IL-18 (100 ng/ml) over 60 mins and immunoblotted for phospho-ERK and phospo-p65 with B-actin and GAPDH as controls; (C) is HOCFs treated with IL-18 (100 ng/ml) over 24 h as indicated, wherein cells were analysed for VEGF expression by qPCR (D) is HOCFs treated with 10, 100 or 1000 ng/ml of IL-18 as indicated over 48 h and cell death was analysed by LDH assay;

VEGF [2] = assay: Retinal VEGF ELISA in JR5558 mice; format: in vivo, mouse; details: JR5558 mice 3 weeks old, 100 μg/kg i.p. on 4 consecutive days, retinas isolated day 8
Description: FIG. 14 illustrates IL-18 can inhibit VEGF secretion in vivo and in vitro, wherein JR5558 mice at 3 weeks (A) were injected (i.p.) with saline (0 μg/kg) or IL-18 (100 μg/kg) on 4 consecutive days (day 1-4), wherein retinas were isolated on day 8 and VEGF concentration in protein lysates was determined using an appropriate ELISA, wherein data are presented as mean±SEM (n=4-5 animals per each treatment group) and expressed as pg of VEGF per mg of total retinal protein as measured by the BCA assay, *p<0.05 by one-way ANOVA with Tukey post test compared to saline controls; (B) is primary human foetal RPE (hfRPE) cells were treated with control medium (0 ng/ml) or a single dose of IL-18 (1000 ng/ml) for 1 to 72 hours, wherein VEGF concentration in the cell-free supernatants was measured at each time point, wherein rate of VEGF secretion was calculated from the slope of linear regression of VEGF concentration (pg/ml) against time (hours) (C), wherein data are presented as mean±SEM and represent a single experiment carried out in triplicate *p<0.05, ***p<0.001 by Student's t test compared to control at each time point;

[3] = test system: human ocular choroidal fibroblasts (HOCFs); assay: Activation of human ocular choroidal fibroblasts (vimentin/phalloidin staining); format: cell-based; details: IL-18 increasing doses, 8 h
Description: as §1

IL-18BP = biological target: T1, IL-18BP (Homo sapiens, UniProt O95998); details: 1:1 stoichiometry; used for free IL-18 calculation (Migliorini et al., 2010); read-out: dissociation constant (Kd) of the IL-18/IL-18BP complex; cited from earlier work
T1 sequence (O95998 31-194): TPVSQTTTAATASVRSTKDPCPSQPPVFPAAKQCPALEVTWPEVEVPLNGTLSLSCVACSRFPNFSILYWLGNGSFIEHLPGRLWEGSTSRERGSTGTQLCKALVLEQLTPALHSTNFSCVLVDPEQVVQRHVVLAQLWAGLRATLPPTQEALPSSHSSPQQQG

[4] = test system: laser induced CNV in WT mice; assay: Fibrovascular scarring after laser induced CNV, 14 days; format: in vivo, mouse; details: IL-18 0.3ng/eye intravitreally, vs vehicle control
Description: FIG. 24 illustrates IL-18 reduces the area of fibrovascular scarring, wherein WT mice underwent laser induced CNV and were injected intravitreally with IL-18 (0.3ng/eye), wherein 14 days later eyes were enucleated, flatmounts were stained with F4/80, vimentin and isolectin and imaged by confocal microscopy; and […]

[5] = test system: human ocular choroidal fibroblasts (HOCFs); assay: LDH assay of HOCF cell death; format: cell-based; details: HOCFs, 10, 100 or 1000 ng/ml IL-18 over 48 h
Description: as §1

[6] = test system: laser induced CNV in WT mice; assay: Mesenchymal cell infiltration/activation after laser induced CNV, 3 days; format: in vivo, mouse
Description: (§2) FIG. 22 illustrates increased mesenchymal cell infiltration/activation in animals injected with IL-18 intrperitoneally, wherein WT mice underwent laser induced CNV and were injected IP with IL-18 (100 ug/kg), wherein 3 days later eyes were enucleated, flatmounts were stained with F4/80, vimentin and isolectin and imaged by confocal microscopy;
as §2, with “23” for “22”, “intra-vitreally,” for “intrperitoneally,”, “intravitreally” for “IP”, “(0.3ng/eye),” for “(100 ug/kg),”

Substance: IL-18: recombinant human IL-18 (SB-485232; GSK)
- appearance of vimentin and SMA in MSCs (bone marrow derived MSCs): strong effect on the appearance of vimentin and SMA
- collagen in MSCs (bone marrow derived MSCs): increased collagen in MSCs
- HRMEC proliferation, IL-18 alone (HRMEC): able to enhance HRMEC proliferation
- VEGF induced proliferation after IL-18 pre-treatment (HRMEC; 24 hour pre-treatment with IL-18 at 10, 100 or 1000 ng/ml): VEGF induced proliferation was increased
- baseline secretion of VEGF from HOCFs (VEGF [1]): strongly reduces the baseline secretion of VEGF
- VEGF levels in the retinas (VEGF [2]): significantly decreased
- HOCF activation / morphology [3]: activates HOCFs causing them to change morphology
- Kd (IL-18BP): 0.4 nM
- vimentin positive staining (area of fibrovascular scarring) [4]: less vimentin positive staining
- HOCF death (LDH assay) [5]: does not cause HOCF death and may enhance HOCF viability
- vimentin staining at CNV lesion ([6]; IL-18 0.3ng/eye intravitreally): driving vimentin positive cells to encapsulate the neovascular lesion
- vimentin staining at CNV lesion ([6]; IL-18 100 ug/kg intra-peritoneally): increased vimentin
